Measurements from patent publication US11583525B2, “Geranylgeranyltransferase I inhibitor for treatment of a PTEN defective cancer” (H. LEE MOFFITT CANCER CENTER AND RESEARCH INSTITUTE, INC., priority 2017, dated 2023).
Entries after “also recorded” stand apart in the source; their conditions may differ. Peptide text beside a SMILES is read from it. * marks the point of attachment. Cbz = O=C(OCc1ccccc1)*

Columns and labels:
Ca2+ response = Ca2+ response measured with aequorin in COS-7 cells expressing IP3R3(Q-FR/A-AA); assay type: cell-based, African Green Monkey; conditions: serum re-stimulated 4 h with MG132, ATP
Procedure: FIGS. 1A, 1B, 1C, 1D, 1E, 1F, 1G, and 1H show FBXL2-mediated degradation of IP3R3 controls Ca2+ flux and sensitivity to apoptosis. […] Left, two representative traces. Right, quantification of three independent experiments. P values were calculated by one-way ANOVA and multiple-comparisons test. Error bars indicate s.e.m. 1b, 1c, and 1d, Apoptosis evaluated after treatment with H2O2 using automated nuclei count analysis of twenty randomly chosen fields following a 16 h treatment (1b), immunoblot detection of cleaved PARP and cleaved caspase-3 following a 3 h treatment (1c), and automated analysis of cells with released cytochrome c (Cyt c) from 80 randomly chosen fields following a 3 h treatment (1d). […] P values were calculated by one-way ANOVA and multiple-comparisons test. […] Left, representative traces show concentrations of cytosolic Ca2+ measured with aequorin. Right, quantification of three independent experiments. P values were calculated by one-way ANOVA and multiple-comparisons test. […] Apoptosis shown in 1h was evaluated as in 1b, except that H2O2 treatment was for 5 h. Analysis of cytochrome c release shown in 1i was evaluated as in 1d. P values were calculated by unpaired t-test. […]
FIGS. 7A, 7B, 7C, 7D, 7E, 7F, 7G, 7H, and 7I show FBXL2 controls Ca2+ mobilization and Ca2+-mediated apoptosis. […] P values were calculated by one-way ANOVA and multiple-comparisons test. […]

FBXL2 = test: Live-cell imaging of GFP-tagged FBXL2 localization in HeLa cells; assay type: cell-based, human; conditions: HeLa cells transfected with GFP-tagged FBXL2; GGTi-2418 15 μM for 16 h
Procedure: FIGS. 6A, 6B, 6C, 6D, 6E, 6F, 6G, and 6H that the degradation of IP3R3 is dependent on FBXL2 localization to cell membranes and on the segregase activity of p97. […] Live cell imaging was carried out with an LSM510 confocal microscope using a 63× objective. Scale bars, 10 μm. […] Cells were subsequently harvested at the indicated times for immunoblotting. […] Cells were subsequently harvested for immunoblotting. This experiment was performed once. […] The bracket on the right marks a ladder of bands which, presumably, are ubiquitinated species of IP3R3 that are not degraded when p97 is inhibited. […] Cells were subsequently stimulated with medium containing serum and harvested at the indicated time points for immunoblotting. […] Error bars indicate s.e.m. […] Thus, we propose that, after its FBXL2-mediated ubiquitination, IP3R3 is extracted from cell membranes by the segregase activity of p97 to be degraded by the proteasome. […] 24 h post-transfection, cells were treated with MG132 for 3 h before harvesting for immunoprecipitation and immunoblotting as indicated. This experiment was performed twice. […] After immunopurification with an anti-Flag resin, in vitro ubiquitination of IP3R3 was performed in the presence of UAE1, Ubch3, Ubch5 and ubiquitin (Ub). […] Samples were analysed by immunoblotting with the indicated antibodies. […]

Compound	Ca2+ response (Ca2+ response)	FBXL2 localization (FBXL2)
CC(C)C[C@@H](C=O)NC(=O)[C@H](CC(C)C)NC(=O)[C@H](CC(C)C)NC(=O)OCc1ccccc1 [MG132] (Cbz-Leu-Leu-Leu-aldehyde)	did not produce an increase of the Ca2+ response	
Cc1nc[nH]c1CN1CCN(C(=O)N[C@@H](CC(C)C)C(=O)O)[C@@H](Cc2ccccc2)C1=O [GGTi-2418]		delocalized FBXL2; also recorded: delocalizes FBXL2 from membranes
